Data taken from paper PMC9603373 (Microbiology Spectrum, 2022).
Marks after values point to notes of the source that are not given here.

What was measured:
[1] = tested on: daptomycin nonsusceptible Enterococcus faecium (NTUH688); experiment: Rat infective endocarditis model, DNSE; assay type: in vivo; conditions: for blood_cfu / log_blood_cfu / log_veg_cfu / veg_cfu / veg_sterile: DNSE MIC 8, delay 48 h; for Bacterial load in blood / Rate of sterile vegetation / Bacterial load of vegetation: Wistar rat IE, DNSE MIC 8 mg/L, 48 h from inoculation to treatment; for Bacterial load in blood / Bacterial load of vegetation: mean (SD), SD; for Bacterial load in blood / Rate of sterile vegetation: n = 3; for Bacterial load of vegetation: sacrifice 24 h after last dose, n = 3, detection limit 2 log10 CFU/g; for veg_sterile: flag 1/0;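 on all read-outs here: Catheter-induced aortic valve endocarditis in male Wistar rats, treated 3 days, bacteria counted by plating vegetation and blood homogenates on brain heart infusion agar, control rats given phosphate-buffered saline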
Protocol: Approval for animal use was obtained from the National Taiwan University Institutional Animal Care and Use Committee before the commencement of the experiments. Endocarditis was induced in male Wistar rats weighing ~330 g by using previously developed methodologies with slight modifications ([46]). To expose the right carotid artery for the placement of an intravascular catheter, the animals were anesthetized with 1 μL/g of Zoletil 50 (1 mg/mL) plus Rompun (23.32 mg/mL). A sterile polyethylene catheter (Intramedic PE-10; Clay Adams, Parsippany, NJ, USA) was inserted through a small incision and advanced 4 cm into the left ventricle. The catheter was ligated and left in place for the duration of the experiment. 24 h after the catheter was placed across the aortic valve, the bacterial inoculum, which was presuspended in saline, and 1 mL of 10^8 CFU/mL of VRE were administered intravenously via the tail vein. We evaluated the actual inoculum based on the CFU count. The rats received antibiotic treatment at 24 h or 48 h after the bacterial inoculation.
The animals were treated for 3 days. A group of infected but phosphate-buffered saline-treated rats was used as a control. 24 h after the last treatment, the animals were sacrificed via anesthetic overdose. The aortic valve vegetation and 1 mL of blood were obtained aseptically from the sacrificed animals, weighed, and homogenized in 1 mL of phosphate-buffered saline. Serial dilutions of homogenized tissues were performed, and 100 μL of each dilution, including the undiluted sample, were plated on brain heart infusion agar to enumerate the bacteria. The animals were included in the final analysis only if they survived the entire therapy and if their catheters were found across the aortic valve in the left ventricle. The detection limit of the bacterial load of vegetation was 2 log10 CFU/g.

in vivo = conditions: male, Wistar, rat, plasma, SD
Protocol: (§1) The experiments were performed in triplicate. […] Plasma was collected via centrifugation, and the samples were stored at −80°C until analysis.
(§2) All of the UHPLC-ESI-MS/MS analyses were performed using an Agilent 1290 UHPLC system coupled with an Agilent 6460 triple quadrupole mass spectrometer (Agilent Technologies, Santa Clara, CA, USA).

[2] = Single-dose pharmacokinetics in healthy rats; conditions: for auc / cmax: rounded mean of the PK study, repeated per rat; for AUC0–24: healthy male Wistar rats, UHPLC-ESI-MS/MS, mean (SD), n = 3, SD; for AUC0–24 / conc: plasma
Protocol: as §1, §2

[3] = 45 mg/kg sc, rat 1 of 3 (row order)
[4] = 45 mg/kg sc, rat 2 of 3 (row order)
[5] = 45 mg/kg sc, rat 3 of 3 (row order)
[6] = 90 mg/kg sc, rat 1 of 3 (row order)
[7] = 90 mg/kg sc, rat 2 of 3 (row order)
[8] = 90 mg/kg sc, rat 3 of 3 (row order)

For `CCCCCCCCCC(=O)N[C@@H](Cc1c[nH]c2ccccc12)C(=O)N[C@H](CC(N)=O)C(=O)N[C@@H](CC(=O)O)C(=O)N[C@@H]1C(=O)NCC(=O)N[C@@H](CCCN)C(=O)N[C@@H](CC(=O)O)C(=O)N[C@H](C)C(=O)N[C@@H](CC(=O)O)C(=O)NCC(=O)N[C@H](CO)C(=O)N[C@@H]([C@H](C)CC(=O)O)C(=O)N[C@@H](CC(=O)c2ccccc2N)C(=O)O[C@@H]1C` [daptomycin, Daptomycin], the blood_cfu [1, 3] was 180, the log_blood_cfu [1, 3] was 2.26 and the log_veg_cfu [1, 3] was 7. The veg_cfu [1, 3] was 5410000, the blood_cfu [1, 4] was 0 and the log_blood_cfu [1, 4] was 0. For the same compound, the log_veg_cfu [1, 4] was 7, the veg_cfu [1, 4] was 7620000 and the blood_cfu [1, 5] was 0. For the same compound, the log_blood_cfu [1, 5] was 0, the log_veg_cfu [1, 5] was 7 and the veg_cfu [1, 5] was 13600000. It also gave a blood_cfu [1, 6] of 0, a log_blood_cfu [1, 6] of 0 and a log_veg_cfu [1, 6] of 5. It also gave a veg_cfu [1, 6] of 80400, a blood_cfu [1, 7] of 0 and a log_blood_cfu [1, 7] of 0. The log_veg_cfu [1, 7] was 5, the veg_cfu [1, 7] was 110000 and the blood_cfu [1, 8] was 0. It also gave a log_blood_cfu [1, 8] of 0, a log_veg_cfu [1, 8] of 5.59 and a veg_cfu [1, 8] of 390000. For the same compound, the “Bacterial load in blood” value ([1]; 45 mg/kg/day s.c. 3 days) was 0.75 (1.30) log10 CFU/mL, the “Rate of sterile vegetation” value ([1]; 45 mg/kg/day s.c. 3 days) was 0 and the “Bacterial load of vegetation” value ([1]; 45 mg/kg/day s.c. 3 days, 45 mg/kg/day) was 6.92 (0.20)^f log10 CFU/g. The “Bacterial load in blood” value ([1]; 90 mg/kg/day s.c. 3 days) was 0 (0) log10 CFU/mL, the “Rate of sterile vegetation” value ([1]; 90 mg/kg/day s.c. 3 days) was 0 and the “Bacterial load of vegetation” value ([1]; 90 mg/kg/day s.c. 3 days, 90 mg/kg/day) was 5.18 (0.36)^g^,^h log10 CFU/g. It also gave a veg_sterile [1, 3] of 0, a veg_sterile [1, 4] of 0 and a veg_sterile [1, 5] of 0. For the same compound, the veg_sterile [1, 6] was 0, the veg_sterile [1, 7] was 0 and the veg_sterile [1, 8] was 0. The Tmax (in vivo; iv, 12 mg/kg) was 0.3 h, the cmax (in vivo; iv, 12 mg/kg) was 106000 ng/mL and the half-life (in vivo; iv, 12 mg/kg) was 4.6 h. The Tmax (in vivo; sc, 45 mg/kg) was 3.3 h, the cmax (in vivo; sc, 45 mg/kg) was 123000 ng/mL and the half-life (in vivo; sc, 45 mg/kg) was 3 h. The Tmax (in vivo; sc, 90 mg/kg) was 3.3 h, the cmax (in vivo; sc, 90 mg/kg) was 178000 ng/mL and the half-life (in vivo; sc, 90 mg/kg) was 2.9 h. It also gave an auc ([2]; 12 mg/kg iv) of 228, a cmax ([2]; 12 mg/kg iv) of 106 and an auc ([2]; 45 mg/kg sc) of 987. The cmax ([2]; 45 mg/kg sc) was 123, the auc ([2]; 90 mg/kg sc) was 2054 and the cmax ([2]; 90 mg/kg sc) was 179. The “AUC0–24” value ([2]; single dose 12 mg/kg i.v.) was 228.2 (15.7) mg × h/L, the “AUC0–24” value ([2]; single dose 45 mg/kg s.c.) was 986.7 (185.6) mg × h/L and the “AUC0–24” value ([2]; single dose 90 mg/kg s.c.) was 2,053.6 (352.3) mg × h/L. For the same compound, the conc ([2]; single dose 12 mg/kg i.v., time 0 h, rat id 1) was 71, the conc ([2]; single dose 12 mg/kg i.v., time 0 h, rat id 2) was 76 and the conc ([2]; single dose 12 mg/kg i.v., time 0 h, rat id 3) was 171. It also gave a conc ([2]; single dose 12 mg/kg i.v., time 0.5 h, rat id 1) of 45, a conc ([2]; single dose 12 mg/kg i.v., time 0.5 h, rat id 2) of 4 and a conc ([2]; single dose 12 mg/kg i.v., time 0.5 h, rat id 3) of 19. For the same compound, the conc ([2]; single dose 12 mg/kg i.v., time 1 h, rat id 1) was 70, the conc ([2]; single dose 12 mg/kg i.v., time 1 h, rat id 2) was 77 and the conc ([2]; single dose 12 mg/kg i.v., time 1 h, rat id 3) was 81. For the same compound, the conc ([2]; single dose 12 mg/kg i.v., time 2 h, rat id 1) was 47, the conc ([2]; single dose 12 mg/kg i.v., time 2 h, rat id 2) was 41 and the conc ([2]; single dose 12 mg/kg i.v., time 2 h, rat id 3) was 50. It also gave a conc ([2]; single dose 12 mg/kg i.v., time 3 h, rat id 1) of 31, a conc ([2]; single dose 12 mg/kg i.v., time 3 h, rat id 2) of 25 and a conc ([2]; single dose 12 mg/kg i.v., time 3 h, rat id 3) of 27. The conc ([2]; single dose 12 mg/kg i.v., time 4 h, rat id 1) was 21, the conc ([2]; single dose 12 mg/kg i.v., time 4 h, rat id 2) was 21 and the conc ([2]; single dose 12 mg/kg i.v., time 4 h, rat id 3) was 21. It also gave a conc ([2]; single dose 12 mg/kg i.v., time 5 h, rat id 1) of 10, a conc ([2]; single dose 12 mg/kg i.v., time 5 h, rat id 2) of 22 and a conc ([2]; single dose 12 mg/kg i.v., time 5 h, rat id 3) of 12. For the same compound, the conc ([2]; single dose 12 mg/kg i.v., time 8 h, rat id 1) was 7, the conc ([2]; single dose 12 mg/kg i.v., time 8 h, rat id 2) was 3.76 and the conc ([2]; single dose 12 mg/kg i.v., time 8 h, rat id 3) was 2.45. The conc ([2]; single dose 12 mg/kg i.v., time 12 h, rat id 1) was 1.45, the conc ([2]; single dose 12 mg/kg i.v., time 12 h, rat id 2) was 0 and the conc ([2]; single dose 12 mg/kg i.v., time 12 h, rat id 3) was 1.2. It also gave a conc ([2]; single dose 12 mg/kg i.v., time 24 h, rat id 1) of 0, a conc ([2]; single dose 12 mg/kg i.v., time 24 h, rat id 2) of 0 and a conc ([2]; single dose 12 mg/kg i.v., time 24 h, rat id 3) of 0. For the same compound, the conc ([2]; single dose 45 mg/kg s.c., time 0 h, rat id 1) was 4, the conc ([2]; single dose 45 mg/kg s.c., time 0 h, rat id 2) was 3.71 and the conc ([2]; single dose 45 mg/kg s.c., time 0 h, rat id 3) was 2. It also gave a conc ([2]; single dose 45 mg/kg s.c., time 0.5 h, rat id 1) of 16, a conc ([2]; single dose 45 mg/kg s.c., time 0.5 h, rat id 2) of 19 and a conc ([2]; single dose 45 mg/kg s.c., time 0.5 h, rat id 3) of 26. The conc ([2]; single dose 45 mg/kg s.c., time 1 h, rat id 1) was 55, the conc ([2]; single dose 45 mg/kg s.c., time 1 h, rat id 2) was 40 and the conc ([2]; single dose 45 mg/kg s.c., time 1 h, rat id 3) was 44. It also gave a conc ([2]; single dose 45 mg/kg s.c., time 2 h, rat id 1) of 98, a conc ([2]; single dose 45 mg/kg s.c., time 2 h, rat id 2) of 64 and a conc ([2]; single dose 45 mg/kg s.c., time 2 h, rat id 3) of 72. It also gave a conc ([2]; single dose 45 mg/kg s.c., time 3 h, rat id 1) of 82, a conc ([2]; single dose 45 mg/kg s.c., time 3 h, rat id 2) of 109 and a conc ([2]; single dose 45 mg/kg s.c., time 3 h, rat id 3) of 142. The conc ([2]; single dose 45 mg/kg s.c., time 4 h, rat id 1) was 117, the conc ([2]; single dose 45 mg/kg s.c., time 4 h, rat id 2) was 89 and the conc ([2]; single dose 45 mg/kg s.c., time 4 h, rat id 3) was 106. For the same compound, the conc ([2]; single dose 45 mg/kg s.c., time 5 h, rat id 1) was 93, the conc ([2]; single dose 45 mg/kg s.c., time 5 h, rat id 2) was 95 and the conc ([2]; single dose 45 mg/kg s.c., time 5 h, rat id 3) was 84. It also gave a conc ([2]; single dose 45 mg/kg s.c., time 8 h, rat id 1) of 63, a conc ([2]; single dose 45 mg/kg s.c., time 8 h, rat id 2) of 68 and a conc ([2]; single dose 45 mg/kg s.c., time 8 h, rat id 3) of 88. The conc ([2]; single dose 45 mg/kg s.c., time 12 h, rat id 1) was 52, the conc ([2]; single dose 45 mg/kg s.c., time 12 h, rat id 2) was 37 and the conc ([2]; single dose 45 mg/kg s.c., time 12 h, rat id 3) was 29. The conc ([2]; single dose 45 mg/kg s.c., time 24 h, rat id 1) was 0.82, the conc ([2]; single dose 45 mg/kg s.c., time 24 h, rat id 2) was 0 and the conc ([2]; single dose 45 mg/kg s.c., time 24 h, rat id 3) was 0.52. For the same compound, the conc ([2]; single dose 90 mg/kg s.c., time 0 h, rat id 1) was 5, the conc ([2]; single dose 90 mg/kg s.c., time 0 h, rat id 2) was 7 and the conc ([2]; single dose 90 mg/kg s.c., time 0 h, rat id 3) was 4. For the same compound, the conc ([2]; single dose 90 mg/kg s.c., time 0.5 h, rat id 1) was 53, the conc ([2]; single dose 90 mg/kg s.c., time 0.5 h, rat id 2) was 42 and the conc ([2]; single dose 90 mg/kg s.c., time 0.5 h, rat id 3) was 51. For the same compound, the conc ([2]; single dose 90 mg/kg s.c., time 1 h, rat id 1) was 58, the conc ([2]; single dose 90 mg/kg s.c., time 1 h, rat id 2) was 80 and the conc ([2]; single dose 90 mg/kg s.c., time 1 h, rat id 3) was 57. It also gave a conc ([2]; single dose 90 mg/kg s.c., time 2 h, rat id 1) of 116, a conc ([2]; single dose 90 mg/kg s.c., time 2 h, rat id 2) of 143 and a conc ([2]; single dose 90 mg/kg s.c., time 2 h, rat id 3) of 129. For the same compound, the conc ([2]; single dose 90 mg/kg s.c., time 3 h, rat id 1) was 125, the conc ([2]; single dose 90 mg/kg s.c., time 3 h, rat id 2) was 175 and the conc ([2]; single dose 90 mg/kg s.c., time 3 h, rat id 3) was 200. It also gave a conc ([2]; single dose 90 mg/kg s.c., time 4 h, rat id 1) of 161, a conc ([2]; single dose 90 mg/kg s.c., time 4 h, rat id 2) of 148 and a conc ([2]; single dose 90 mg/kg s.c., time 4 h, rat id 3) of 143. For the same compound, the conc ([2]; single dose 90 mg/kg s.c., time 5 h, rat id 1) was 158, the conc ([2]; single dose 90 mg/kg s.c., time 5 h, rat id 2) was 168 and the conc ([2]; single dose 90 mg/kg s.c., time 5 h, rat id 3) was 179. It also gave a conc ([2]; single dose 90 mg/kg s.c., time 8 h, rat id 1) of 128, a conc ([2]; single dose 90 mg/kg s.c., time 8 h, rat id 2) of 151 and a conc ([2]; single dose 90 mg/kg s.c., time 8 h, rat id 3) of 170. The conc ([2]; single dose 90 mg/kg s.c., time 12 h, rat id 1) was 78, the conc ([2]; single dose 90 mg/kg s.c., time 12 h, rat id 2) was 116 and the conc ([2]; single dose 90 mg/kg s.c., time 12 h, rat id 3) was 84. For the same compound, the conc ([2]; single dose 90 mg/kg s.c., time 24 h, rat id 1) was 2, the conc ([2]; single dose 90 mg/kg s.c., time 24 h, rat id 2) was 6.44 and the conc ([2]; single dose 90 mg/kg s.c., time 24 h, rat id 3) was 3.35.
